Source: the supplement of paper PMC10307832

Columns and labels:
Test in all cases: relative viability (nuclei count vs DMSO), 5 days (fraction); higher = more cells survive
[1] = compound: Cc1ccc(-n2nc(C(C)(C)C)cc2NC(=O)Nc2ccc(OCCN3CCOCC3)c3ccccc23)cc1 [Doramapimod] + Nc1ncn([C@H]2C[C@H](O)[C@@H](CO)O2)c(=O)n1 [Decitabine] (partner 2 µM)
How it was run: (§1)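 Cells from lung cancer lines were seeded into 1536-well plates and, one day later, dosed by pin tool. Treatments were either a single drug or a fixed dose of an anchor drug with five library-drug doses (not always all listed) in √10 steps. After 5 days, nuclei were stained in a one-step fixation (final 0.05% Triton X-100, 1% formaldehyde, 1 ug/ml Hoechst) and counted on 4× images, and relative viability is the treated-to-vehicle nuclei ratio, as the median of duplicate plates.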

[2] = compound: Cn1c(Nc2ccc(C(F)(F)F)cc2)nc2cc(Oc3ccnc(-c4ncc(C(F)(F)F)[nH]4)c3)ccc21 [RAF265] + O=C(CCCCCCC(=O)Nc1ccccc1)NO [Vorinostat] (partner 1 µM)
How it was run: as §1

[3] = compound: Cn1c(Nc2ccc(C(F)(F)F)cc2)nc2cc(Oc3ccnc(-c4ncc(C(F)(F)F)[nH]4)c3)ccc21 [RAF265] + CC(=O)c1c(C)c2cnc(Nc3ccc(N4CCNCC4)cn3)nc2n(C2CCCC2)c1=O [Palbociclib] (partner 0.5 µM)
How it was run: as §1

[4] = compound: Cc1ccc(-n2nc(C(C)(C)C)cc2NC(=O)Nc2ccc(OCCN3CCOCC3)c3ccccc23)cc1 [Doramapimod] + Cc1nc(NC(=O)N2CCC[C@H]2C(N)=O)sc1-c1ccnc(C(C)(C)C(F)(F)F)c1 [Alpelisib] (partner 2 µM)
How it was run: as §1

Cell Line | relative viability ([1]; first compound 0.02 µM) | relative viability ([1]; first compound 0.06325 µM) | relative viability ([1]; first compound 0.2 µM) | relative viability ([1]; first compound 0.6325 µM) | relative viability ([1]; first compound 2 µM) | relative viability ([2]; first compound 0.01 µM) | relative viability ([2]; first compound 0.03162 µM) | relative viability ([2]; first compound 0.1 µM) | relative viability ([2]; first compound 0.3162 µM) | relative viability ([2]; first compound 1 µM) | relative viability ([3]; first compound 0.01 µM) | relative viability ([3]; first compound 0.03162 µM) | relative viability ([3]; first compound 0.1 µM) | relative viability ([3]; first compound 0.3162 µM) | relative viability ([3]; first compound 1 µM) | relative viability ([4]; first compound 0.02 µM) | relative viability ([4]; first compound 0.06325 µM) | relative viability ([4]; first compound 0.2 µM) | relative viability ([4]; first compound 0.6325 µM) | relative viability ([4]; first compound 2 µM)
HCC-15 | 0.64 | 0.621 | 0.63 | 0.645 | 0.681 | 0.803 | 0.937 | 0.867 | 0.782 | 0.551 | 0.71 | 0.825 | 0.672 | 0.537 | 0.27 | 0.854 | 0.801 | 0.884 | 0.906 | 0.775
NCI-H1563 | – | – | – | – | – | – | – | – | – | – | – | – | – | – | – | 0.859 | 0.912 | 0.893 | 1 | 0.802
COR-L 105 | 0.602 | 0.641 | 0.718 | 0.802 | 0.676 | 1.03 | 0.896 | 0.845 | 0.725 | 0.495 | 0.425 | 0.36 | 0.385 | 0.371 | 0.358 | 0.844 | 1.07 | 0.983 | 1 | 0.963
NCI-H520 | 0.408 | 0.46 | 0.536 | 0.552 | 0.424 | 0.777 | 0.579 | 0.688 | 0.572 | 0.55 | 0.264 | 0.218 | 0.239 | 0.191 | 0.155 | 0.883 | 0.822 | 0.954 | 0.832 | 0.807
